This is an account of results in US9546383B2, “Human pluripotent embryonic stem cells produced by nuclear transfer using a somatic cell nucleus treated with HVJ-E extract and an oocyte from a donor cycle that produced 15 or fewer oocytes” (priority 2013, dated 2017).

Where a SMILES comes first, the peptide text is derived from it. [ ]: non-standard residue; d: D form. d(hArg(Et2)) = CCN=C(NCC)NCCCC[C@@H](N)C(=O)O; hArg(Et2) = CCN=C(NCC)NCCCC[C@H](N)C(=O)O; dPhe(4-Cl) = N[C@H](Cc1ccc(Cl)cc1)C(=O)O; d2Nal = N[C@H](Cc1ccc2ccccc2c1)C(=O)O; d3Pal = N[C@H](Cc1cccnc1)C(=O)O

The subject of test [1] is Monkey SCNT embryo. The test is described as follows: Monkey SCNT embryo development after treatment with trichostatin A (TSA). Type of test: cell-based, rhesus macaque. As for the experimental part: (§1) However, the quality of such blastocysts and their potential to give rise to stable ESCs remained unknown until this current disclosure. A total of 16 monkey SCNT blastocysts produced with TSA treatment were plated on mitotically inactivated mouse embryonic fibroblast (mEF) feeders. None of these blastocysts produced NT-ESC lines (Table 1). Lower TSA concentrations as well as shorter exposure times to TSA had no effect on monkey SCNT blastocyst development and ESC isolation.
(§2) Oocyte collections, SCNT, embryo culture and NT-ESC isolation procedures were performed as previously described (Byrne et al, 2007 supra; Sparman et al., 2009, supra; Sparman et al, 2010 supra).

The next test relates to monkey SCNT blastocysts. The test is described as follows: Monkey NT-ESC isolation after treatment with TSA. Type of test: cell-based, rhesus macaque. The procedure: as §1, §2
Test [2] has as its system Monkey SCNT embryo. The note with it: 37.5 nM TSA; from 4% without; cited from earlier work.
Test [3] in a line: Ovarian stimulation of egg donors under different pituitary suppression regimens. Type of test: in vivo, human. The note with it: antagonist 6 cycles, agonist 4 cycles. The procedure: Optimal stimulation protocols giving the best chance of producing oocytes capable of producing NT-ESCs using SCNT were sought. The impact of GnRH agonists and antagonists used to suppress the pituitary function of egg donors were first assessed. Prior to stimulations, the anti-mullerian hormone (AMH) level and antral follicle counts (AFC) were measured for each individual egg donor (Table S3). Donors with higher AMH and AFC profiles are associated with high ovarian reserve and received the GnRH agonist Lupron® (4 cycles) while the remaining donors were provided with the GnRH antagonist (ganirelix, 6 cycles) (Table 3).
Ovarian stimulation protocols followed established clinical IVF guidelines as we described previously (Tachibana et al, 2013 supra). Briefly, a combination of recombinant follicle stimulating hormone (rFSH) and human menopausal gonadotropins (hMG) and either GnRH agonist (Lupron®, Tap Pharmaceutical Products, Lake Forest, Ill.) or antagonist (Ganirelix®, Merck & Co, Whitehouse Station, N.J.) were given. Human chorionic gonadotropin (hCG) was prescribed to trigger oocyte maturation. Self administration of injectable rFSH (sc, Follistim®, Merck & Co, Whitehouse Station, N.J.) commenced on cycle day 2 or 3 and continued for approximately 8-12 days. The starting gonadotropin dose was 75-125 IU/day and 1-2 A hMG (sc, Menopur®, Ferring Pharmaceuticals, Inc. Parsippany, N.J.); the dose was adjusted per individual response using an established step-down regimen until the day of hCG injection. Ovarian response and follicular growth were monitored by transvaginal ultrasound and measurements of serum estradiol levels. When two or more follicles reached >18 mm in diameter, subjects received hCG ([…], sc, Ovidrel®, EMDSerono, Rockland, Mass.) to trigger maturation. Thirty-six hours following hCG injection, subjects underwent oocyte retrieval via transvaginal follicular aspirations.

In test [4] the test system is human SCNT embryos. The experiment in a line: Human SCNT embryo development and NT-ESC derivation by GnRH agonist or antagonist treatment of oocyte donor. The note with it: oocytes from treated donors. In kind it is cell-based. As for the experimental part: A retrospective analysis of ovarian stimulation procedures was conducted in order to determine the effect of the number of oocytes retrieved per cycle on human SCNT embryo development and NT-ESC derivation outcomes. Oocyte donation cycles were divided into three groups based on the range of collected mature MII oocytes—10 or fewer oocytes per cycle (5 donors), between 11 to 15 oocytes (2 donors) and more than 16 oocytes per cycle (3 donors). While survival after enucleation, fusion, pronuclear formation and cleavage of SCNT embryos were similar between these groups, more embryos derived from the donors producing ≧16 MII oocytes/cycle arrested after the 8-cell stage than the other two groups (FIG. 5A). In addition, the quality of SCNT blastocysts also negatively correlated with the number of collected oocytes per cycle. […] The peak estradiol (E2) level measured in blood of egg donors prior to hCG priming positively correlated with the subsequent yield of oocytes (FIG. 10). […]
Optimal stimulation protocols giving the best chance of producing oocytes capable of producing NT-ESCs using SCNT were sought. The impact of GnRH agonists and antagonists used to suppress the pituitary function of egg donors were first assessed. Prior to stimulations, the anti-mullerian hormone (AMH) level and antral follicle counts (AFC) were measured for each individual egg donor (Table S3). […]

The test system of test [5] is human SCNT embryos. The test is described as follows: Human SCNT with caffeine during enucleation and fusion: spindle formation and blastocyst development. In kind it is cell-based. The procedure: As expected, somatic cell nuclei introduced into oocyte cytoplasts under these conditions efficiently formed spindle-like structures detectable under birefringence microscope (83.3%, 10/12) (FIG. 2D). […] Human SCNT blastocysts in this group contained visible, prominent ICMs similar to that observed for IVF embryos (FIG. 2E).
Enucleation of MII spindles were performed as described previously (Tachibana et al., 2013 supra). […] The droplet was covered with tissue culture oil and oocytes maintained at 37° C. for 10-15 min before spindle removal. The dish was then mounted on the stage of an inverted microscope (Olympus IX71®) equipped with a stage warmer (http://www.tokaihit.com) Narishige micromanipulators, Oosight™ Imaging System (www.cri-inc.com) and a laser objective (www.hamiltonthorne.com). An oocyte was positioned by a holding pipette so that the spindle was situated between the 2 o'clock and 4 o'clock position. The zona pellucida next to the spindle was drilled with a laser pulse and an enucleation pipette was inserted through the opening. A small amount of cytoplasm surrounded by plasma membrane and contacting spindle was aspirated into the pipette. Next, a disaggregated fibroblast was aspirated into a micropipette and briefly transferred to the drop containing HVJ-E extract (Ishihara Sangyo Kaisha Ltd). […]

[6] abbreviates: TSA 10 nM, 12 h, 23 plated blastocysts.

Turning to `CC(/C=C/C(=O)NO)=C\[C@@H](C)C(=O)c1ccc(N(C)C)cc1` [TSA, trichostatin A], in the test on Monkey SCNT embryo [1] (TSA 5 nM for 12 h, N 212), the “8-cell (%)” value is “(92.8) %”; the “8-cell, number” value turned out to be 192; the “Blastocysts (%)” value stood at 14.5%; the “Blastocysts, number” value is reported as 30. Also, in the test on Monkey SCNT embryo [1] (TSA 5 nM for 12 h, N 212), the “CM (%)” value is “(26.0) %”; the “CM, number” value is listed as 58; the “PN (%)” value is on record as “(98.6) %”; the “PN, number” value turned out to be 207. Besides, in the test with Monkey SCNT embryo [1] (TSA 5 nM for 12 h, N 212), the “fused (%)” value was “(99.1) %” and the “fused, number” value was determined as 210. In addition, in the test with Monkey SCNT embryo [1] (TSA 10 nM for 12 h, N 571), the “8-cell (%)” value was “(93.7) %”; the “8-cell, number” value came to 494; the “Blastocysts (%)” value is given as 18.8%; the “Blastocysts, number” value was 99. In the test on Monkey SCNT embryo [1] (TSA 10 nM for 12 h, N 571), the “CM (%)” value was “(27.9) %”; the “CM, number” value is on record as 147; the “PN (%)” value is “(94.4) %”; the “PN, number” value was 535. In addition, in the test with Monkey SCNT embryo [1] (TSA 10 nM for 12 h, N 571), the “fused (%)” value is “(99.3) %” and the “fused, number” value came to 567. In the test on Monkey SCNT embryo [1] (TSA 10 nM for 24 h, N 108), the “8-cell (%)” value was “(97.1) %”; the “8-cell, number” value is listed as 100; the “Blastocysts (%)” value was found to be 24.3%; the “Blastocysts, number” value turned out to be 25. For the same compound, in the test on Monkey SCNT embryo [1] (TSA 10 nM for 24 h, N 108), the “CM (%)” value is “(32.0) %”; the “CM, number” value was 33; the “PN (%)” value was “(100) %”; the “PN, number” value stood at 104. Also, in the test with Monkey SCNT embryo [1] (TSA 10 nM for 24 h, N 108), the “fused (%)” value was “(95.4) %” and the “fused, number” value is on record as 104. For the same compound, in the test with Monkey SCNT embryo [1] (TSA 37.5 nM for 24 h, N 511), the “8-cell (%)” value is “(90.3) %”; the “8-cell, number” value stood at 418; the “Blastocysts (%)” value worked out at 18.4%; the “Blastocysts, number” value came to 85. Besides, in the test with Monkey SCNT embryo [1] (TSA 37.5 nM for 24 h, N 511), the “CM (%)” value is “(23.1) %”; the “CM, number” value is on record as 107; the “PN (%)” value is “(99.0) %”; the “PN, number” value is given as 498. In the test with Monkey SCNT embryo [1] (TSA 37.5 nM for 24 h, N 511), the “fused (%)” value was “(98.4) %” and the “fused, number” value was determined as 503. Besides, in the test with Monkey SCNT embryo [1] (reducing TSA concentration to 10 nM or shortening exposure from 24 h to 12 h), the “effect on blastocyst rates” value is given as “did not affect blastocyst rates”. In the test with monkey SCNT blastocysts (TSA 5 nM, 12 h, 7 plated blastocysts), the “# NT-ESCs” value turned out to be 0. For the same compound, in the test on monkey SCNT blastocysts (setting [6]), the “# NT-ESCs” value came to 3 and the “# NT-ESCs (%)” value amounted to 13%. Further, the “# NT-ESCs” value with monkey SCNT blastocysts (TSA 10 nM, 24 h, 4 plated blastocysts) is recorded as 0. The “development of monkey SCNT embryos to blastocysts” value in the test with Monkey SCNT embryo [2] was 18%.
As for `CCNC(=O)[C@@H]1CCCN1C(=O)[C@H](CCCNC(=N)N)NC(=O)[C@H](CC(C)C)NC(=O)[C@@H](CC(C)C)NC(=O)[C@H](Cc1ccc(O)cc1)NC(=O)[C@H](CO)NC(=O)[C@H](Cc1c[nH]c2ccccc12)NC(=O)[C@H](Cc1c[nH]cn1)NC(=O)[C@@H]1CCC(=O)N1` [GnRH agonist], in test [3], the “Peak E2” value was 2709 ± 1597.3. In addition, in the test with human SCNT embryos [4], the “SCNT embryo development beyond the 8-cell stage” value is on record as “impaired”.
In the case of `CCN=C(NCC)NCCCC[C@H](NC(=O)[C@H](CC(C)C)NC(=O)[C@@H](CCCCNC(=NCC)NCC)NC(=O)[C@H](Cc1ccc(O)cc1)NC(=O)[C@H](CO)NC(=O)[C@@H](Cc1cccnc1)NC(=O)[C@@H](Cc1ccc(Cl)cc1)NC(=O)[C@@H](Cc1ccc2ccccc2c1)NC(C)=O)C(=O)N1CCC[C@H]1C(=O)N[C@H](C)C(N)=O` [GnRH antagonist, ganirelix] (Ac-[d2Nal][dPhe(4-Cl)][d3Pal]SY[d(hArg(Et2))]L[hArg(Et2)]P[dA]-NH2), in test [3], the “# oocytes (MII oocytes collected per cycle, mean±SD)” value amounted to 11.7±5.6 and the “Peak E2” value was 2568.2 ± 806.1. The NT-ESC lines derived entry in the test with human SCNT embryos [4] is reported as “six”.
As for `Cn1c(=O)c2c(ncn2C)n(C)c1=O` [caffeine], the “blastocyst development of caffeine treated embryos” value in the test with human SCNT embryos [5] (1.25 mM caffeine during enucleation and fusion) was found to be 23.5%. Besides, the “somatic cell nuclei forming spindle-like structures” value with human SCNT embryos [5] (1.25 mM caffeine during enucleation and somatic cell fusion, 10/12) is listed as 83.3%.
